Results from article PMC9312238, “Novel Organoselenium Redox Modulators with Potential Anticancer, Antimicrobial, and Antioxidant Activities” (Antioxidants, 2022).
≈ marks a conversion by molar mass, not a printed value.

Assays:
[1] = test system: Candida albicans; assay: microbe, parasite or virus in culture; type: cell-based; set-up: C. albicans A% (activity index): concentration or dose not given beside the values
Experimental: (§1) The antimicrobial activities of the OSe compounds were evaluated against C. albicans yeast, as well as E. coli and S. bacteria, employing the agar well diffusion assay. Furthermore, the MICs (in µM) were determined by the microdilution method according to the reported protocol. More details are in the Supporting Information.
Compounds were evaluated for their antimicrobial activity against the Gram-negative bacteria Escherichia coli (E. coli) and the Gram-positive bacteria Staphylococcus aureus (S. aureus), as well as the Candida albicans (C. albicans) fungal strain, using the agar diffusion assay. Ampicillin and clotrimazole were used as standards. Indeed, the antimicrobial properties of the OSe compounds were also obtained from the activity index percentage (A%) according to Equation (2). (2) A%=Zone of inhibition by test compound diametre/Zone of inhibition by standard diametre×100 . […]
(§2) 1.1.1. The antimicrobial activity
The antimicrobial activities of the OSe compounds were evaluated against C. albicans yeast as well as E. coli gram-negative and S. aureus gram-positive bacteria employing the agar well diffusion assay. […]
compound by dissolving in DMSO. […]
Petri dishes, which in turn contain a nutrient media (agar 20 g, peptone 5 g, and beef extract 3 g) seeded with the dedicated strain. Incubation lasted for 24 h at 36
(§3) Furthermore, the MICs (in µM) were determined by the microdilution method according to the reported protocol. […]
(§4) Inhibition%= (Ablank-Asample)/(Ablank)*100. (1)

[2] = test system: Candida albicans; assay: MIC by microdilution, C. albicans; type: cell-based; conditions: Candida albicans; microdilution; read-out: MIC (μM) C. albicans
Experimental: as §1, with “Information. […]” for “Information.”
as §2
The antimicrobial activities of the OSe compounds were evaluated against C. albicans yeast as well as E. coli gram-negative and S. aureus gram-positive bacteria employing the agar well diffusion assay. Briefly, a concentration of 1 mM was prepared for each compound by dissolving in DMSO. Paper discs of standard size […] were steri-lized in an autoclave and soaked in 20 µL of the test compounds, and placed in the Petri dishes, which in turn contain a nutrient media (agar 20 g, peptone 5 g, and beef extract 3 g) seeded with the dedicated strain. Incubation lasted for 24 h at 36
as §3, §4

[3] = DPPH radical scavenging bioassay; type: biochemical
From the text: (§5) The antioxidant activity was estimated by ABTS and DPPH bioassays, according to the reported literature method. More details are in the Supplementary Materials.
(§6) Recently, OSe compounds were thoroughly used as redox modulators to control many complicated diseases (e.g., cancer and neurodegenerative diseases). The DPPH and ABTS bioassays were extensively used as rapid tools for estimating the antioxidant potency of OSe compounds [50, 51]. Ascorbic acid was used as a standard control, and the antioxidant potency was measured by the ability of the compounds to decolorize the characteristic colors of the ABTS^. and DPPH^. radicals by following the colorimetric decline in absorbance at 734 and 517 nm, respectively (Figure 2).
Figure 2 Evaluation of the antioxidant properties of the OSe compounds employing the ABTS and DPPH assays. All measurements are mean ± SD. In the DPPH assay: absorbance was read after 0.5 h of mixing […] of DPPH with […] of OSe compounds (1 mM, MeOH) at 517 nm. In the ABTS assay: […] of each OSe compound (1 mM, phosphate-buffered methanol) was mixed with the ABTS solution (60 mM), and absorbance was monitored at 734 nm. […]
1.1.1. The antioxidant activity
The hydrogen atom or electron donation ability of the corresponding compounds was measured by estimating the bleaching of the purple color of a methanolic solution of DPPH [29]. This spectrophotometric assay uses stable DPPH. reagent. The sample was prepared by adding […] of the OSe compounds (1 mM in methanol) to […] DPPH in methanol. After 30 min of incubation in the dark, the absorbance was read against a blank at 517 nm. Ascorbic acid (vitamin C) and ebselen were used as standard antioxi-dants (positive control). A blank sample was run without DPPH. A negative control sam-ple was run using methanol instead of the sample. The radical scavenging activity was calculated using the following equation:
as §4

[4] = ABTS radical scavenging bioassay; type: biochemical
From the text: as §5, §6
Figure 2 Evaluation of the antioxidant properties of the OSe compounds employing the ABTS and DPPH assays. All measurements are mean ± SD. In the DPPH assay: absorbance was read after 0.5 h of mixing […] of DPPH with […] of OSe compounds (1 mM, MeOH) at 517 nm. In the ABTS assay: […] of each OSe compound (1 mM, phosphate-buffered methanol) was mixed with the ABTS solution (60 mM), and absorbance was monitored at 734 nm.
The antioxidant activity of the investigated compounds was assessed using 2,2’-az-ino-bis(3-ethylbenzothiazoline-6-sulphonic acid (ABTS) method. The radical cation derived from ABTS was prepared by the reaction of 60 mM ABTS solution with 0.3 M manganese dioxide solution in 0.1M phosphate buffer, pH 7. Then, the mixture was shaken, centrifuged, filtered, and the absorbance (Acontrol) of the resulting green-blue solu-tion (ABTS radical solution) was measured at wavelength 734 nm. Then, […] of 1 mg/ml test compound in phosphate-buffered methanol was added. The absorbance (Atest) was measured. The reduction in color intensity was expressed as % inhibition. The % inhibi-tion for each compound is calculated from the following equation
Inhibition% = (Acontrol-Asample)/(Acontrol)*100
Ascorbic acid (vitamin C) was used as a standard antioxidant (positive control). A blank sample was run without ABTS and using MeOH/phosphate buffer (1:1) instead of the sample. A negative control sample was run with MeOH/phosphate buffer (1:1) instead

[5] = concentration decreasing absorbance by 50%

MIC [2] | IC50 [3, 5] | IC50 [4, 5] | SMILES | zone of inhibition at 20 µM ([1]; Candida albicans, inhibition zone diameter, six-mm disks soaked with 20 μM of compound, read-out: C. albicans IZD (mm)) | C. albicans A% (activity index) ([1]; zone of test compound / zone of standard (clotrimazole) x 100) | radical scavenging activity, DPPH assay ([3]; compound 1 mM in MeOH, read after 0.5 h at 517 nm) | radical scavenging activity, ABTS assay ([4]; compound 1 mM in phosphate-buffered methanol, 734 nm)
2 µM (≈ 0.69 µg/mL) |  |  | Clc1ccccc1C(c1ccccc1)(c1ccccc1)n1ccnc1 [Clotrimazole, clotrimazole, reference compound] | 24 mm | 100% |  | 
 | 19.18 ± 0.13 µM | 28.16 ± 0.19 µM | O=C1O[C@H]([C@@H](O)CO)C(O)=C1O [Vitamin C, Ascorbic acid, reference compound] |  |  | 95% | 88%
